This passage reports inhibition results from article PMC9516332 (Frontiers in Oncology, 2022).

Read-outs that look alike come from different tables or passages of the source.

Common to all, as to assay: Kinase panel profiling at 1 µmol/L (MSA or IMAP), percentage inhibition
Common to all, as to type: biochemical

Assay [1] has as its target T1, panel of 255 wild-type kinases (Homo sapiens, UniProt P51813).
T1 sequence (P51813 1-675): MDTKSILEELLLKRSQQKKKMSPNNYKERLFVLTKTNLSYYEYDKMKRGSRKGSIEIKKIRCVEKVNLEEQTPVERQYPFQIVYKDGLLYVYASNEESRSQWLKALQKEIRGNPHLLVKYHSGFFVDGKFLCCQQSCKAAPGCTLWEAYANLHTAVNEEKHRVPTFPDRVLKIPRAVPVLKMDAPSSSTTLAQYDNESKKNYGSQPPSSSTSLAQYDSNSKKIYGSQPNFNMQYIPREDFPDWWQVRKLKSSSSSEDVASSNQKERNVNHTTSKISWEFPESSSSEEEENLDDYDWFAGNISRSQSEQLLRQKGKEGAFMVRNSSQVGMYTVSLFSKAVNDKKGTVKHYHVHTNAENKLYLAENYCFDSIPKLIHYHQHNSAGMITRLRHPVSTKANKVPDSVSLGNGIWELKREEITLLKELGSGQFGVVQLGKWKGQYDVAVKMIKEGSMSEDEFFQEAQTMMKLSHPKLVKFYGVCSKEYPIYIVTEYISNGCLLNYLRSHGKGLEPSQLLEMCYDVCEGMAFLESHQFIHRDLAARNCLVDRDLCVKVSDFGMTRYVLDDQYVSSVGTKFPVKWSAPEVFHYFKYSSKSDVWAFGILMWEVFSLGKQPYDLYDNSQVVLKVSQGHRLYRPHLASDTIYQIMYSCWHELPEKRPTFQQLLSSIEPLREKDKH
Conditions: read-out: %-inhibition BMX.

Assay [2] addresses panel of 255 wild-type kinases (Homo sapiens, UniProt Q05655). Conditions: read-out: %-inhibition at 1 µmol/L, PKCδ.
The target in assay [3] is T2, panel of 255 wild-type kinases (Homo sapiens, UniProt P30530).
T2 sequence (P30530 26-894): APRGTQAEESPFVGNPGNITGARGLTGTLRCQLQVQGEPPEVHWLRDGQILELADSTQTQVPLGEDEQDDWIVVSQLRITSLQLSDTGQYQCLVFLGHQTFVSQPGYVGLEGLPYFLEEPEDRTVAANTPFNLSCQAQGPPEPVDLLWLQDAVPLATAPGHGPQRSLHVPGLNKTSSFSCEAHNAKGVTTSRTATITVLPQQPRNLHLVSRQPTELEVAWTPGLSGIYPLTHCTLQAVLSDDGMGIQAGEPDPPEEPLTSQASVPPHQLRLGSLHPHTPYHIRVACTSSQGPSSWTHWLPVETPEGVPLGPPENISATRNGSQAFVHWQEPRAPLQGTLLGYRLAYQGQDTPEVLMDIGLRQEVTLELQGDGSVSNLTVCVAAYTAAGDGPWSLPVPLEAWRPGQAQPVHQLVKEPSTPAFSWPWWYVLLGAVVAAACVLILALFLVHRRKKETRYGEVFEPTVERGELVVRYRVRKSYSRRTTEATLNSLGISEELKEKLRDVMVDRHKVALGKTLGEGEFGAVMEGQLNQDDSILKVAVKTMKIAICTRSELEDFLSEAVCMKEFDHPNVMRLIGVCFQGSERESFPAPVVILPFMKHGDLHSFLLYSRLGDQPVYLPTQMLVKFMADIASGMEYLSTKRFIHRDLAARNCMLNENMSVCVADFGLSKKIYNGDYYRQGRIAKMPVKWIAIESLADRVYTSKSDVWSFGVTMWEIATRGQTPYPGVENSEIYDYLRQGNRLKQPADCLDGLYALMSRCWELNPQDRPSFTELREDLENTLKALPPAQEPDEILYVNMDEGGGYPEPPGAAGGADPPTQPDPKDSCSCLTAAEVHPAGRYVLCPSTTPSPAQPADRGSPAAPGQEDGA
The settings on record: read-out: %-inhibition AXL.

Assay [4] deals with panel of 255 wild-type kinases (Homo sapiens, UniProt Q9Y463). Conditions: read-out: %-inhibition at 1 µmol/L, DYRK1B.
Assay [5] concerns the target T3, panel of 255 wild-type kinases (Homo sapiens, UniProt Q9BZL6).
T3 sequence (Q9BZL6 1-878): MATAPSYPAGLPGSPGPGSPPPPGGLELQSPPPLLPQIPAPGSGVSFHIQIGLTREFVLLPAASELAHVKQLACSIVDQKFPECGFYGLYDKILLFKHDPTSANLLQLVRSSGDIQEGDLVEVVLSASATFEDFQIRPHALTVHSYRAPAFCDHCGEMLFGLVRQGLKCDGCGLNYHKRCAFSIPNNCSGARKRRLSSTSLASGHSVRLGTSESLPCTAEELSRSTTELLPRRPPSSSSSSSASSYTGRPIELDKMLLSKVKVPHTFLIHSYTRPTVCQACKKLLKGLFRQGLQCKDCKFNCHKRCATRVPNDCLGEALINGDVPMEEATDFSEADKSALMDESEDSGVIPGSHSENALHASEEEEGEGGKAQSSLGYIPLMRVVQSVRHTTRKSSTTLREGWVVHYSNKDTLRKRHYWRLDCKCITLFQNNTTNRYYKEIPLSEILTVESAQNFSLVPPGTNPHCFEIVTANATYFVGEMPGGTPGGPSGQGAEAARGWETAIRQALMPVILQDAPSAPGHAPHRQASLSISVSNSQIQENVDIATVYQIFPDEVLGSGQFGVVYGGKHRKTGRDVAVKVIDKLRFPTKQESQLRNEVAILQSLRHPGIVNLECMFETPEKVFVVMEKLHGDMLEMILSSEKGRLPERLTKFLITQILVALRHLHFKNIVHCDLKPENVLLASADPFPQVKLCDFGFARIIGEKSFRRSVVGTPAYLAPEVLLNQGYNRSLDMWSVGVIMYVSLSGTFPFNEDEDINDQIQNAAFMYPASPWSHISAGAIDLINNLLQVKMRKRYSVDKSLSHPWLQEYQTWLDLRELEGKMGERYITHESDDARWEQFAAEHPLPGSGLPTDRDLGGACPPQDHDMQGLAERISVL
Conditions: read-out: %-inhibition at 1 µmol/L, PKD2.

[6] abbreviates: BMX kinase assay, 1 µmol/L single concentration.
Setting [7] is: kinase PKCδ, 1 µmol/L single concentration.
Setting [8] is: AXL kinase assay, 1 µmol/L single concentration.
Where [9] appears, read: kinase DYRK1B, 1 µmol/L single concentration.
Setting [10] is: kinase PKD2, 1 µmol/L single concentration.

Turning to `Cn1cc(-c2cc3c(N4CCN(c5ncc([C@@](C)(N)c6ccc(F)cc6)cn5)CC4)ncnn3c2)cn1` [avapritinib], the inhibition at 1 µM in assay [1] (setting [6]) was 21%; in assay [2] (setting [7]), 5%; in assay [3] (setting [8]), 37%; in assay [4] (setting [9]), 47%; in assay [5] (setting [10]) it was -0.865%.
For `C[C@H](Nc1ncnc2nc[nH]c12)c1cc2cccc(Cl)c2c(=O)n1-c1ccccc1` [duvelisib], in that order: 1.46%, 1.67%, -0.298%, -0.692% and -12%.
For `COc1cc2ncnc(Nc3ccc(F)c(Cl)c3)c2cc1NC(=O)/C=C/CN1CCCCC1` [dacomitinib], in that order: 12%, 9%, 40%, 7% and 10%.
For `CCN1CCN(c2ccc(Nc3cc(N(C)C(=O)Nc4c(Cl)c(OC)cc(OC)c4Cl)ncn3)cc2)CC1` [infigratinib], in that order: 0.836%, -3%, 30%, -2.3% and -4.21%.
As for `Cn1cnc2c(F)c(Nc3ccc(Br)cc3Cl)c(C(=O)NOCCO)cc21` [selumetinib], the inhibition at 1 µM in assay [1] (setting [6]) is 2.24%; in assay [2] (setting [7]), -4.35%; in assay [3] (setting [8]), 26%; in assay [4] (setting [9]), -3.17%; in assay [5] (setting [10]), -15%.
`CNC(=O)c1ccc(-c2cnc3ncc(Cc4ccc5ncccc5c4)n3n2)cc1F` [capmatinib]: the inhibition at 1 µM was 4.33% in assay [1]; -10% in assay [2]; 34% in assay [3]; 1.71% in assay [4]; -7.47% in assay [5].
`COC(=O)N[C@@H](C)CNc1nccc(-c2cn(C(C)C)nc2-c2cc(Cl)cc(NS(C)(=O)=O)c2F)n1` [encorafenib]: the inhibition at 1 µM in assay [1] (setting [6]) is 8%; in assay [2] (setting [7]), -2.67%; in assay [3] (setting [8]) it was 0.276%; in assay [4] (setting [9]), -3.42%; in assay [5] (setting [10]) it was 2.49%.
The corresponding values for `Cc1cc(Nc2ncnc3ccc(NC4=NC(C)(C)CO4)cc23)ccc1Oc1ccn2ncnc2c1` [tucatinib] are 6.62%, 2.67%, 22%, -1.89% and 44%.
As for `C=CC(=O)N1CCC([C@@H]2CCNc3c(C(N)=O)c(-c4ccc(Oc5ccccc5)cc4)nn32)CC1` [zanubrutinib], the inhibition at 1 µM in assay [2] (setting [7]) is -6%; in assay [3] (setting [8]), 4.56%; in assay [4] (setting [9]) it was 5.39%; in assay [5] (setting [10]) it was 2.31%.
As for `Cn1cnc2c(F)c(Nc3ccc(Br)cc3F)c(C(=O)NOCCO)cc21` [binimetinib], the inhibition at 1 µM in assay [1] (setting [6]) was 4%; in assay [2] (setting [7]) it was -9%; in assay [3] (setting [8]) it was -1.7%; in assay [4] (setting [9]), -7%; in assay [5] (setting [10]), -7%.
Turning to `COc1ccc(CN2C3CC2CN(c2ccc(-c4cc(OCC(C)(C)O)cn5ncc(C#N)c45)cn2)C3)cn1` [selpercatinib], the inhibition at 1 µM was 12% in assay [1] (setting [6]); -2% in assay [2] (setting [7]); 93% in assay [3] (setting [8]); 1.42% in assay [4] (setting [9]); 1.11% in assay [5] (setting [10]).
The corresponding values for `CCN1C(=O)N(c2c(F)c(OC)cc(OC)c2F)Cc2cnc3[nH]c(CN4CCOCC4)cc3c21` [pemigatinib] are 1.44%, 0.471%, 4.45%, 6% and 4.44%.
The corresponding values for `CN1CCN(c2ccc(C(=O)Nc3n[nH]c4ccc(Cc5cc(F)cc(F)c5)cc34)c(NC3CCOCC3)c2)CC1` [entrectinib] are 99%, 8%, 96%, 6% and -24%.
The corresponding values for `CO[C@]1(C(=O)N[C@@H](C)c2ccc(-n3cc(F)cn3)nc2)CC[C@H](c2nc(C)cc(Nc3cc(C)[nH]n3)n2)CC1` [pralsetinib] are 82%, -3%, 92%, -12% and -9%.
Turning to `C[C@H]1Oc2cc(cnc2N)-c2c(nn(C)c2C#N)CN(C)C(=O)c2ccc(F)cc21` [lorlatinib], the inhibition at 1 µM in assay [1] (setting [6]) was 4%; in assay [2] (setting [7]), 5%; in assay [3] (setting [8]) it was 8%; in assay [4] (setting [9]), -2.8%; in assay [5] (setting [10]) it was -11%.
The corresponding values for `CCn1c(=O)c(-c2cc(NC(=O)Nc3ccccc3)c(F)cc2Br)cc2cnc(NC)cc21` [ripretinib] are 60%, 54%, 4%, -2.38% and 13%.
The corresponding values for `Cc1nc(NC(=O)N2CCC[C@H]2C(N)=O)sc1-c1ccnc(C(C)(C)C(F)(F)F)c1` [alpelisib] are 0.476%, -7.56%, -3.59%, 8% and -20%.
